Assay results taken from ChEMBL document CHEMBL1158952, “An Nmr Study of Four Benzophenanthridine Alkaloids” (J Nat Prod, 1991).
The source made the active and inactive calls.

What was measured:
Format in all cases: functional, organism-based
[1] = tested on: Escherichia coli; test: Antimicrobial activity against Escherichia coli ATCC 25922 at 25 ug
[2] = tested on: Bacillus subtilis; test: Antimicrobial activity against Bacillus subtilis ATCC 6633 at 25 ug
[3] = tested on: Micrococcus luteus; test: Antimicrobial activity against Micrococcus luteus ATCC 9341 at 25 ug
[4] = tested on: Penicillium oxalicum; test: Antimicrobial activity against Penicillium oxalicum CBS 219.30 at 25 ug

Measured: Activity

COc1ccc2c(c1OC)CN(C)c1c-2ccc2cc3c(cc12)OCO3
inactive: all assays above

COc1cc2c(c3c1-c1ccc4cc5c(cc4c1N(C)C3)OCO5)OCO2
inactive: all assays above

COc1ccc2c(c1OC)CN(C)c1c-2cc(OC)c2cc3c(cc12)OCO3
inactive: all assays above

CN1Cc2c(ccc3c2OCO3)-c2ccc3cc4c(cc3c21)OCO4
inactive: all assays above
